≈ marks a conversion by molar mass, not a printed value. Where two headings read alike, the source gives them in different places.
Legend:
Assay type in all cases: cell-based
[1] = system: BS1723 B. subtilis BS168 WT wild type; experiment: broth dilution MIC, B. subtilis BS1723; settings: BS1723 B. subtilis BS168 WT wild type
Source text: (§1) We have collected MIC data for a total of 50 novel macrolides that this platform has produced against over 21 unique strains of B. subtilis, E. coli, S. aureus, S. pneumoniae, and H. influenzae, including several multidrug-resistant strains, with a special focus on macrolide resistant mechanisms (vide supra). Azithromycin was included as a control macrolide. CLSI standard procedures for broth dilution MIC determination were used. […] These genotypes can be constitutive or inducible. The finding that C4-epi (unnatural) isomers of the “azaketolide” macrolide class have enhanced activities relative to C4 natural isomers is very exciting.

BS1725 B. subtilis ermC = experiment: broth dilution MIC, B. subtilis BS1725
Source text: as §1

EC882 E. coli imp = experiment: broth dilution MIC, E. coli EC882
Source text: as §1

EC878 E. coli tolC = experiment: broth dilution MIC, E. coli EC878
Source text: as §1

[2] = system: SA101 S. aureus ATCC29213; experiment: broth dilution MIC, S. aureus SA101
Source text: as §1

EC107 E. coli ATCC25922 = experiment: broth dilution MIC, E. coli EC107
Source text: as §1

E. coli strains = experiment: MIC against E. coli strains (Table M7); settings: Escherichia coli, ATCC25922, E. coli ATCC 25922
How it was run: (§2)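 Standard CLSI broth dilution method used for MIC determination. Control: azithromycin.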

E. faecalis strains = experiment: MIC against E. faecalis strains (Table M8); settings: Enterococcus faecalis, E. faecalis 29212
K. pneumoniae strains = experiment: MIC against K. pneumoniae strains (Table M8); settings: Klebsiella pneumoniae, K. pneumoniae 10031
S. aureus strains = experiment: MIC against S. aureus strains (Table M7); settings: Staphylococcus aureus
How it was run: as §2

A. baumannii strains = experiment: MIC against A. baumannii strains (Table M8); settings: Acinetobacter baumannii, BAA747, A. baumannii BAA747-1
H. influenzae strains = experiment: MIC against H. influenzae strains (Table M8); settings: Haemophilus influenzae
How it was run: as §2

S. pneumoniae strains = experiment: MIC against S. pneumoniae strains (Tables M7, M8); settings: Streptococcus pneumoniae
Source text: CLSI standard procedures for broth dilution MIC determination were used. […] These genotypes can be constitutive or inducible.

[3] = Bacillus subtilis, read-out: MIC
[4] = Bacillus subtilis, BS1725 B. subtilis ermC (+ery)
[5] = Bacillus subtilis, BS1725 B. subtilis ermC (−ery)
[6] = Staphylococcus aureus, ATCC29213, SA101 S. aureus ATCC29213, read-out: MIC
[7] = Escherichia coli, read-out: MIC
[8] = ATCC29213, S. aureus ATCC 29213, read-out: MIC S. aureus (ATCC 29213)
[9] = S. aureus 183, read-out: MIC S. aureus (183)
[10] = S. aureus 506, read-out: MIC S. aureus (506)
[11] = S. aureus 1708, read-out: MIC S. aureus (1708)
[12] = USA300, S. aureus USA300, read-out: MIC S. aureus (USA300)
[13] = H. influenzae 49247, read-out: MIC H. influenzae (49247)
[14] = H. influenzae 49766, read-out: MIC H. influenzae (49766)
[15] = S. pneumoniae 160, read-out: MIC S. pneumonae (160)
[16] = S. pneumoniae 1509, read-out: MIC S. pneumoniae (1509)
[17] = S. pneumoniae 1533, read-out: MIC S. pneumoniae (1533)
[18] = S. pneumoniae 1537, read-out: MIC S. pneumoniae (1537)
[19] = S. pneumoniae 49619, read-out: MIC S. pneumoniae (49619)

Row | SMILES | MIC [1, 3] | MIC (BS1725 B. subtilis ermC; [4]) | MIC (BS1725 B. subtilis ermC; [5]) | MIC (EC882 E. coli imp; Escherichia coli) | MIC (EC878 E. coli tolC; Escherichia coli) | MIC [2, 6] | MIC (EC107 E. coli ATCC25922; [7]) | other results
1 | CC[C@H]1OC(=O)C(C)(F)C(=O)[C@@H](C)[C@@H](O[C@@H]2OC(C)CC(N(C)C)C2O)[C@](C)(OC)C[C@@H](C)CN(C)[C@H](C)[C@H]2N(CCCCn3cc(-c4nccs4)nn3)C(=O)O[C@]12C (stereo partly drawn) [FSM-20717] |  |  |  |  |  |  |  | MIC [1]: 16 µg/mL (≈ 18.8 µM); MIC (BS1725 B. subtilis ermC; BS1725 B. subtilis ermC (+ery)): >32 µg/mL; MIC (BS1725 B. subtilis ermC; BS1725 B. subtilis ermC (−ery)): 8 µg/mL (≈ 9.39 µM); MIC (EC882 E. coli imp): 1 µg/mL (≈ 1.17 µM); MIC (EC878 E. coli tolC): 1 µg/mL (≈ 1.17 µM); MIC ([2]; SA101 S. aureus ATCC29213): 16 µg/mL (≈ 18.8 µM); MIC (EC107 E. coli ATCC25922): >32 µg/mL
2 | CC[C@H]1OC(=O)[C@H](C)C(=O)C[C@@H](O[C@@H]2OC(C)CC(N(C)C)C2O)[C@@](C)(OC)C[C@@H](C)CN(C(C)=O)[C@H](C)[C@H]2N(CCCCn3cc(-c4cccc(N)c4)nn3)C(=O)O[C@]12C (stereo partly drawn) [FSM-30512] | > 32 µg/mL | > 32 µg/mL | > 32 µg/mL | > 32 µg/mL | > 32 µg/mL | > 32 µg/mL | > 32 µg/mL | 
3 | CC[C@H]1OC(=O)[C@H](C)C(=O)C[C@@H](O[C@@H]2OC(C)CC(N(C)C)C2O)[C@@](C)(OC)C[C@@H](C)CN[C@H](C)[C@H]2N(CCCCn3cc(-c4cccnn4)nn3)C(=O)O[C@]12C (stereo partly drawn) [FSM-30506] | > 32 µg/mL | > 32 µg/mL | > 32 µg/mL | > 32 µg/mL | > 32 µg/mL | > 32 µg/mL | > 32 µg/mL | 
4 | CC[C@H]1OC(=O)[C@H](C)C(=O)C[C@@H](O[C@@H]2OC(C)CC(N(C)C)C2O)[C@](C)(OC)C[C@@H](C)CN[C@H](C)[C@H]2N(CCCCn3cc(-c4nc5ccccc5s4)nn3)C(=O)O[C@]12C (stereo partly drawn) [FSM-10788] | > 32 µg/mL | > 32 µg/mL | > 32 µg/mL | 0.0625 µg/mL (≈ 0.073 µM) | 1 µg/mL (≈ 1.17 µM) | > 32 µg/mL | > 32 µg/mL | 
5 | CC[C@H]1OC(=O)[C@H](C)C(=O)C[C@@H](O[C@@H]2OC(C)CC(N(C)C)C2O)[C@](C)(OC)C[C@@H](C)CN(C(C)=O)[C@H](C)[C@H]2N(CCCCN=[N+]=[N-])C(=O)O[C@]12C (stereo partly drawn) [FSM-10789] | > 32 µg/mL | > 32 µg/mL | > 32 µg/mL | 8 µg/mL (≈ 10.8 µM) | 4 µg/mL (≈ 5.41 µM) | > 32 µg/mL | > 32 µg/mL | 
6 | CC[C@H]1OC(=O)[C@](C)(F)C(=O)C[C@@H](O[C@@H]2OC(C)CC(N(C)C)C2O)[C@](C)(OC)C[C@@H](C)CN[C@H](C)[C@H]2N(CCCCn3cc(-c4cccc(N)c4)nn3)C(=O)O[C@]12C (stereo partly drawn) [FSM-10661] | > 32 µg/mL | > 32 µg/mL | > 32 µg/mL | 2 µg/mL (≈ 2.4 µM) | 16 µg/mL (≈ 19.2 µM) | > 32 µg/mL | > 32 µg/mL | 
7 | CC[C@H]1OC(=O)[C@H](C)C(=O)C[C@@H](O[C@@H]2OC(C)CC(N(C)C)C2O)[C@](C)(OC)C[C@@H](C)CN(C(C)=O)[C@H](C)[C@H]2N(CCCCn3cc(-c4cccnn4)nn3)C(=O)O[C@]12C (stereo partly drawn) [FSM-10794] | > 32 µg/mL | > 32 µg/mL | > 32 µg/mL | 16 µg/mL (≈ 19 µM) | 8 µg/mL (≈ 9.49 µM) | > 32 µg/mL | > 32 µg/mL | 
8 | CC[C@H]1OC(=O)C(C)(F)C(=O)[C@@H](C)[C@@H](O[C@@H]2OC(C)CC(N(C)C)C2O)[C@](C)(OC)C[C@@H](C)CN[C@H](C)[C@H]2N(CCCCn3cc(-c4nc5ccccc5s4)nn3)C(=O)O[C@]12C (stereo partly drawn) [FSM-20722] | 16 µg/mL (≈ 18 µM) | > 32 µg/mL |  | 0.5 µg/mL (≈ 0.563 µM) | 1 µg/mL (≈ 1.13 µM) | 8 µg/mL (≈ 9.01 µM) | > 32 µg/mL | 
9 | CC[C@H]1OC(=O)[C@H](C)C(=O)C[C@@H](O[C@@H]2OC(C)CC(N(C)C)C2O)[C@@](C)(OC)C[C@@H](C)CN(C(C)=O)[C@H](C)[C@H]2N(CCCCn3cc(-c4ccccn4)nn3)C(=O)O[C@]12C (stereo partly drawn) [FSM-30515] | > 32 µg/mL | > 32 µg/mL | > 32 µg/mL | > 32 µg/mL | > 32 µg/mL | > 32 µg/mL | > 32 µg/mL | 
10 | CC[C@H]1OC(=O)[C@H](C)C(=O)C[C@@H](O[C@@H]2OC(C)CC(N(C)C)C2O)[C@@](C)(OC)C[C@@H](C)CN(C(C)=O)[C@H](C)[C@H]2N(CCCCn3cc(-c4nc5ccccc5s4)nn3)C(=O)O[C@]12C (stereo partly drawn) [FSM-30514] | > 32 µg/mL | > 32 µg/mL | > 32 µg/mL | > 32 µg/mL | > 32 µg/mL | > 32 µg/mL | > 32 µg/mL | 
11 | CC[C@H]1OC(=O)[C@H](C)C(=O)C[C@@H](O[C@@H]2OC(C)CC(N(C)C)C2O)[C@](C)(OC)C[C@@H](C)CN[C@H](C)[C@H]2N(CCCCn3cc(-c4nccs4)nn3)C(=O)O[C@]12C (stereo partly drawn) [FSM-10787] | > 32 µg/mL | > 32 µg/mL | > 32 µg/mL | 0.125 µg/mL (≈ 0.155 µM) | 2 µg/mL (≈ 2.48 µM) | > 32 µg/mL | 32 µg/mL (≈ 39.7 µM) | 
12 | CC[C@H]1OC(=O)[C@H](C)C(=O)[C@H](C)[C@@H](O[C@@H]2OC(C)CC(N(C)C)C2O)[C@](C)(OC)C[C@@H](C)CN(C(C)=O)[C@H](C)[C@H]2N(CCCCn3cc(-c4nccs4)nn3)C(=O)O[C@]12C (stereo partly drawn) [FSM-20763] | 16 µg/mL (≈ 18.6 µM) | > 32 µg/mL |  | 2 µg/mL (≈ 2.32 µM) | 4 µg/mL (≈ 4.64 µM) | 16 µg/mL (≈ 18.6 µM) | > 32 µg/mL | 
13 | CC[C@H]1OC(=O)[C@H](C)C(=O)[C@H](C)[C@@H](O[C@@H]2OC(C)CC(N(C)C)C2O)[C@](C)(OC)C[C@@H](C)CN[C@H](CCO)[C@H]2N(CCCCn3cc(-c4cccc(N)c4)nn3)C(=O)O[C@]12C (stereo partly drawn) [FSM-11056] |  |  |  |  |  |  |  | MIC (E. coli strains): > 32 µg/mL; MIC (E. faecalis strains): 2 µg/mL (≈ 2.33 µM); MIC (K. pneumoniae strains): 16 µg/mL (≈ 18.6 µM); MIC (S. aureus strains; [8]): 8 µg/mL (≈ 9.32 µM); MIC (S. aureus strains; [9]): > 32 µg/mL; MIC (S. aureus strains; [10]): > 32 µg/mL; MIC (S. aureus strains; [11]): 8 µg/mL (≈ 9.32 µM); MIC (S. aureus strains; [12]): 32 µg/mL (≈ 37.3 µM); MIC (A. baumannii strains): > 32 µg/mL; MIC (H. influenzae strains; [13]): 4 µg/mL (≈ 4.66 µM); MIC (H. influenzae strains; [14]): 16 µg/mL (≈ 18.6 µM); MIC (S. pneumoniae strains; [15]): 1 µg/mL (≈ 1.17 µM); MIC (S. pneumoniae strains; [16]): 0.5 µg/mL (≈ 0.583 µM); MIC (S. pneumoniae strains; [17]): > 32 µg/mL; MIC (S. pneumoniae strains; [18]): > 32 µg/mL; MIC (S. pneumoniae strains; [19]): 0.125 µg/mL (≈ 0.146 µM)
14 | CC[C@H]1OC(=O)C(C)(F)C(=O)[C@H](C)[C@@H](O[C@@H]2OC(C)CC(N(C)C)C2O)[C@](C)(OC)CC(C)(F)CN[C@H](C)[C@H]2N(CCCCn3cc(-c4cccc(N)c4)nn3)C(=O)O[C@]12C (stereo partly drawn) [FSM-30704] |  |  |  |  |  |  |  | MIC (E. coli strains): 32 µg/mL (≈ 37 µM); MIC (E. faecalis strains): 0.5 µg/mL (≈ 0.579 µM); MIC (K. pneumoniae strains): 16 µg/mL (≈ 18.5 µM); MIC (S. aureus strains; [8]): 2 µg/mL (≈ 2.31 µM); MIC (S. aureus strains; [9]): > 32 µg/mL; MIC (S. aureus strains; [10]): > 32 µg/mL; MIC (S. aureus strains; [11]): 2 µg/mL (≈ 2.31 µM); MIC (S. aureus strains; [12]): 4 µg/mL (≈ 4.63 µM); MIC (A. baumannii strains): > 32 µg/mL; MIC (H. influenzae strains; [13]): 2 µg/mL (≈ 2.31 µM); MIC (H. influenzae strains; [14]): 8 µg/mL (≈ 9.26 µM); MIC (S. pneumoniae strains; [15]): 0.25 µg/mL (≈ 0.289 µM); MIC (S. pneumoniae strains; [16]): 1 µg/mL (≈ 1.16 µM); MIC (S. pneumoniae strains; [17]): > 32 µg/mL; MIC (S. pneumoniae strains; [18]): > 32 µg/mL; MIC (S. pneumoniae strains; [19]): 0.25 µg/mL (≈ 0.289 µM)

Source: patent US9982005B2, “Macrolides and methods of their preparation and use” (President and Fellows of Harvard College, priority 2013, dated 2018)
